Experimental data reported in ChEMBL document CHEMBL3046283, “The simple synthesis and antimicrobial activity of novel fluoroquinolone derivatives from natural amino acid salts” (2012).
Where a name gives a salt, the structure may show the parent alone. Activity calls are given as the source filed them. The rule behind the calls is not given here.

Assays:
Bacillus subtilis [1] = assay: Antibacterial activity against Bacillus subtilis at 1 mg/ml after 24 hr by […]; format: functional; conditions: read-out: DIZ
Candida albicans = assay: Antifungal activity against Candida albicans at 0.1 to 1 mg/ml after 24 hr by […]; format: functional, organism-based
Aspergillus fumigatus [2] = assay: Antifungal activity against Aspergillus fumigatus at 0.1 mg/ml after 24 hr by […]; format: functional, organism-based
Aspergillus fumigatus [3] = assay: Antifungal activity against Aspergillus fumigatus at 0.2 mg/ml after 24 hr by […]; format: functional
Aspergillus fumigatus [4] = assay: Antifungal activity against Aspergillus fumigatus at 1 mg/ml after 24 hr by […]; format: functional; conditions: for zone of inhibition at 1000 µg/mL: read-out: DIZ
Staphylococcus aureus [5] = assay: Antibacterial activity against Staphylococcus aureus at 0.1 mg/ml after 24 hr by […]; format: functional
Staphylococcus aureus [6] = assay: Antibacterial activity against Staphylococcus aureus at 0.2 mg/ml after 24 hr by […]; format: functional
Staphylococcus aureus [7] = assay: Antibacterial activity against Staphylococcus aureus at 1 mg/ml after 24 hr by […]; format: functional; conditions: for zone of inhibition at 1000 µg/mL: read-out: DIZ
Bacillus subtilis [8] = assay: Antibacterial activity against Bacillus subtilis at 0.1 mg/ml after 24 hr by […]; format: functional; conditions: for zone of inhibition at 100 µg/mL: read-out: DIZ
Bacillus subtilis [9] = assay: Antibacterial activity against Bacillus subtilis at 0.2 mg/ml after 24 hr by […]; format: functional; conditions: read-out: DIZ

Compound | zone of inhibition at 1000 µg/mL (Bacillus subtilis [1]) [mm] | diameter of the inhibition zone (DIZ) (Candida albicans) | diameter of the inhibition zone (DIZ) (Aspergillus fumigatus [2]) | diameter of the inhibition zone (DIZ) (Aspergillus fumigatus [3]) | diameter of the inhibition zone (DIZ) (Aspergillus fumigatus [4]) | diameter of the inhibition zone (DIZ) (Staphylococcus aureus [5]) | diameter of the inhibition zone (DIZ) (Staphylococcus aureus [6]) | diameter of the inhibition zone (DIZ) (Staphylococcus aureus [7]) | diameter of the inhibition zone (DIZ) (Bacillus subtilis [8]) | zone of inhibition at 200 µg/mL (Bacillus subtilis [9]) [mm] | zone of inhibition at 200 µg/mL (Aspergillus fumigatus [3]; read-out: DIZ) [mm] | zone of inhibition at 1000 µg/mL (Aspergillus fumigatus [4]) [mm] | zone of inhibition at 1000 µg/mL (Staphylococcus aureus [7]) [mm] | zone of inhibition at 100 µg/mL (Bacillus subtilis [8]) [mm] | zone of inhibition at 100 µg/mL (Staphylococcus aureus [5]; read-out: DIZ) [mm] | zone of inhibition at 200 µg/mL (Staphylococcus aureus [6]; read-out: DIZ) [mm]
CC(C)C(C(=O)O)n1cc(C(=O)O)c(=O)c2cc(F)c(N3CCN(C)CC3)c(F)c21 (stereo not given) | 1 | inactive | inactive | inactive | inactive | inactive | inactive | inactive | inactive | 0.7 |  |  |  |  |  | 
CN1CCN(c2c(F)cc3c(=O)c(C(=O)O)cn(CC(=O)O)c3c2F)CC1 | 1.1 | inactive | inactive |  |  | inactive | inactive |  |  | 0.9 | 0.6 | 1 | 0.7 | 0.65 |  | 
CC(C)CC(C(=O)O)n1cc(C(=O)O)c(=O)c2cc(F)c(N3CCN(C)CC3)c(F)c21 (stereo not given) | 1.15 | inactive | inactive | inactive | inactive | inactive | inactive |  | inactive | 0.95 |  |  | 0.6 |  |  | 
CCC(C)C(C(=O)O)n1cc(C(=O)O)c(=O)c2cc(F)c(N3CCN(C)CC3)c(F)c21 (stereo not given) | 1.2 | inactive | inactive | inactive | inactive | inactive | inactive |  |  | 1.15 |  |  | 0.6 | 0.6 |  | 
C[C@H]1COc2c(N3CCN(C)CC3)c(F)cc3c(=O)c(C(=O)O)cn1c23 [LEVOFLOXACIN HYDROCHLORIDE] | 4.6 | inactive | inactive | inactive | inactive |  |  |  |  | 3.8 |  |  | 3.3 | 3.6 | 2.6 | 2.9
CN1CCN(c2c(F)cc3c(=O)c(C(=O)O)cn(C(Cc4ccccc4)C(=O)O)c3c2F)CC1 (stereo not given) | 1.2 | inactive | inactive | inactive |  | inactive | inactive |  | inactive | 0.95 |  | 0.75 | 0.8 |  |  | 
CN1CCN(c2c(F)cc3c(=O)c(C(=O)O)cn(C(C(=O)O)c4ccccc4)c3c2F)CC1 (stereo not given) | 1.05 | inactive | inactive | inactive |  | inactive | inactive |  |  | 0.9 |  | 0.6 | 0.6 | 0.6 |  | 
